Assay: Kinetic study between CB—OH and CB-Ring by 1H NMR
Type: physicochemical
Details: for half-life of CB-Ring (hydrolysis to CB—OH): buffer
Procedure: Kinetic study between CB—OH and CB-Ring. The equilibrium conversion between the CB—OH and CB-Ring was monitored by ^1H NMR at various time points. To monitor the formation of CB-Ring, CB—OH powder was initially dissolved in TFA-d at a concentration of 0.2 M. The conversion from CB-Ring to CB—OH was studied by dissolving CB-Ring in either pH 7.3 or pH 10 buffer at a concentration of 0.2 M. These two buffers were made from 200 mM Na2CO3 in D2O and were titrated with DCl. Conversion was calculated based on the ratio of the characteristic peak for CB-Ring (1H, CH2═C(CH3)COOCH2CH(O—)CH2—) and a common peak of both structures (6H, —CH2N(CH3)2CH2—). In FIG. 5, the final conversion within 160 min was about 93% for all three conditions investigated. Because the integration error for ^1H NMR can be as large as 10%, a value of 93% essentially represented an almost full conversion.
Kinetic study between CB—OH and CB-Ring in acetic acid/pH=7.3 buffer. ^1H NMR was used to monitor the equilibrium conversion between the CB—OH and CB-Ring. CB—OH monomer was initially dissolved in [D]acetic acid at a concentration of 0.2 M. At various time points, the spectra were collected, and composition for the formed CB-Ring was calculated based on the ratio of the characteristic peaks for CB-Ring and CB—OH (FIG. 16). The equilibrated product (a mixture of CB-Ring and CB—OH) in [D]acetic acid was precipitated in ethyl ether, vacuum dried, and placed into pH=7.3 buffer made from 200 mM Na2CO3 in D2O titrated with DCl. CB-Ring was hydrolyzed to CB—OH at this condition and the composition for the CB-Ring at various time points were measured (FIG. 16).

Row | Compound | half-life of CB-Ring (hydrolysis to CB—OH) (pH 7) | half-life of CB-Ring (hydrolysis to CB—OH) (pH 10) | final conversion to CB—OH within 160 min (pH 7.3 buffer (200 mM Na2CO3 in D2O titrated with DCl)) | time to nearly full conversion (hydrolysis) of CB-Ring back to CB—OH (pH 7.3 buffer, product equilibrated 40 h in [D]HAc) | time to complete conversion to the zwitterionic form (pH 10) | final conversion to CB—OH within 160 min (pH 10 buffer (200 mM Na2CO3 in D2O titrated with DCl)) | conversion of CB—OH to CB-ring (in words) (TFA, 1 h) | time to full conversion into the CB-Ring structure (TFA-d) | half-life at 0.2 M (TFA-d solution, acidic environment, TFA-d / TFA, read-out: half-life of CB—OH (conversion to CB-Ring)) | final conversion to CB-Ring within 160 min (TFA-d, 0.2 M) | conversion of CB—OH to CB-Ring ([D]HAc (acetic acid), 0.2 M, 20 h)
1 | C=C(C)C(=O)OCC1C[N+](C)(C)CC(=O)O1 (centres unmarked) [CB-Ring, 2-(Methacryloyloxymethyl)-4,4-dimethyl-6-oxomorpholin-4-ium] | about 4 min | < 1 min | about 93% | less than 10 min | less than 6 min | about 93% | – | – | – | – | –
2 | C=C(C)C(=O)OCC(O)C[N+](C)(C)CC(=O)[O-] (centres unmarked) [CB—OH, 2-((2-Hydroxy-3-(methacryloyloxy)propyl)dimethylammonio)acetate] | – | – | – | – | – | – | almost complete conversion | ≤ 2 h | ~14 min | about 93% | 50%

Reference: US20120269870A1, “SWITCHABLE POLYMERS AND SURFACES WITH REVERSIBLY SWITCHABLE PROPERTIES” (University of Washington through its Center for …, priority 2011, published 2012)
